Experiments:
[1] = target: T1, human recombinant HDAC6 (Homo sapiens, UniProt Q9UBN7); assay: HDAC6 enzyme activity inhibition (HDAC Fluorimetric Drug Discovery Kit); format: biochemical; conditions: for HDAC6 selectivity (fold): HDAC1 IC50 / HDAC6 IC50; for IC50: human recombinant HDAC6, IC50 calculated with GraphPad Prism
T1 construct: purchased Calbiochem Inc. 382180
T1 sequence (Q9UBN7 1-1215): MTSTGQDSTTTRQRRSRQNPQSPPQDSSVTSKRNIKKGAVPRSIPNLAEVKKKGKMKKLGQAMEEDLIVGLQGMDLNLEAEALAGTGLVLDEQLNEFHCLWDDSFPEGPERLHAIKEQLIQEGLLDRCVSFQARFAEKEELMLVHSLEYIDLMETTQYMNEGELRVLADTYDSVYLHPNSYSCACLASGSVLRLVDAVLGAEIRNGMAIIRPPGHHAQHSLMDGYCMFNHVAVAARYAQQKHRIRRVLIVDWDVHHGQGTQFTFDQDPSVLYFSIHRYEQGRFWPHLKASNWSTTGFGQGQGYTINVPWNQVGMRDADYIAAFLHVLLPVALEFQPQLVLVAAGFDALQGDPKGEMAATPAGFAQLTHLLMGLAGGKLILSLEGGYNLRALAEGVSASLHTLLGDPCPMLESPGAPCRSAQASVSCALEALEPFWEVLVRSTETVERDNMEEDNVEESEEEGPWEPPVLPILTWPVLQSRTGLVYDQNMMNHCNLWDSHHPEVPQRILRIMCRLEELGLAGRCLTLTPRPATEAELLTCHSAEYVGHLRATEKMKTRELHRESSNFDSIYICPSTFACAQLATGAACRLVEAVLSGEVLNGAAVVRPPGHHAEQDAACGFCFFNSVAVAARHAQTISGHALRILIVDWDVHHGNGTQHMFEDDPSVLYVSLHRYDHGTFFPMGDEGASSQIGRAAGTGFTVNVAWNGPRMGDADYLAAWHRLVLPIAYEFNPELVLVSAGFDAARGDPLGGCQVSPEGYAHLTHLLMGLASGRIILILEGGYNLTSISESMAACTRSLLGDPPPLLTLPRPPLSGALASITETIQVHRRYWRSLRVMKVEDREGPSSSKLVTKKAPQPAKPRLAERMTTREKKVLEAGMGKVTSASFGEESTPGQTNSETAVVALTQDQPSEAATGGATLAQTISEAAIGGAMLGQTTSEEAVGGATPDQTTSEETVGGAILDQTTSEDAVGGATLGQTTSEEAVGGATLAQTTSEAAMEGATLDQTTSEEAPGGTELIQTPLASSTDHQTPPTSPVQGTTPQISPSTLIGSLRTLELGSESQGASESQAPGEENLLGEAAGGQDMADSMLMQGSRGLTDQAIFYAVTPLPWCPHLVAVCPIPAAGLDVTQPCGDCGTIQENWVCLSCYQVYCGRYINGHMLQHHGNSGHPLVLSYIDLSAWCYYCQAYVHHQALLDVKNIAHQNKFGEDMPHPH
Outline: (§1)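 Fluorimetric deacetylase read-out: after 30 min with Developer II following a 60 min, 30° C reaction of recombinant enzyme ([…]) with 10 μM substrate, across five-fold serial compound dilutions.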

[2] = target: T2, human recombinant HDAC1 (Homo sapiens, UniProt Q13547); assay: HDAC1 enzyme activity inhibition (HDAC Fluorimetric Drug Discovery Kit); format: biochemical; conditions: human recombinant HDAC1; IC50 calculated with GraphPad Prism; read-out: HDAC1
T2 construct: purchased Enzo Life Science, Inc. BML-SE456
T2 sequence (Q13547 whole entry): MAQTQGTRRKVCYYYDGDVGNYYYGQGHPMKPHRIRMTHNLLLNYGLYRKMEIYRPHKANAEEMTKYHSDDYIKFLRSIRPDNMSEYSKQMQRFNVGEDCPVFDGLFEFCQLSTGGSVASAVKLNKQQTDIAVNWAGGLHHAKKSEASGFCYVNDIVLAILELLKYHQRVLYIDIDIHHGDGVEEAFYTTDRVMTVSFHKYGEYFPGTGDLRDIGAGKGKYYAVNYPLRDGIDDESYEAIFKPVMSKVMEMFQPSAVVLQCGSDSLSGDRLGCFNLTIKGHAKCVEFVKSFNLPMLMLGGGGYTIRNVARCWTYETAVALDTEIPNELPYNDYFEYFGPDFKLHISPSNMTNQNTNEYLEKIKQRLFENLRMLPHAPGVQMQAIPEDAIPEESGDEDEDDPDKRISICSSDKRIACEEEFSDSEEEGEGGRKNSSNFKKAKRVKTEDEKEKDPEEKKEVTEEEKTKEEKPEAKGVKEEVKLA
Outline: as §1

| Compound | HDAC6 selectivity (fold) [1] [fold] | IC50 [1] [µM] | IC50 [2] [µM] |
| --- | --- | --- | --- |
| CN1CCN(c2cccc(-c3cn(Cc4ccc(-c5nnc(C(F)F)o5)cc4)nn3)c2F)CC1 [Compound 4483, 2-(difluoromethyl)-5-(4-((4-(2-fluoro-3-(4-methylpiperazin-1-yl)phenyl)-1H-1,2,3-triazol-1-yl)methyl)phenyl)-1,3,4-oxadiazole] | 1466 | 0.0341 | > 50 |
| FC(F)c1cccc(-c2cn(Cc3ccc(-c4nnc(C(F)F)o4)cc3)nn2)c1 [Compound 4487, 2-(difluoromethyl)-5-(4-((4-(3-(difluoromethyl)phenyl)-1H-1,2,3-triazol-1-yl)methyl)phenyl)-1,3,4-oxadiazole] | 627 | 0.0797 | > 50 |
| Fc1cc(-c2nnc(C(F)F)o2)ccc1Cn1cc(-c2cccc(C(F)F)c2)nn1 [Compound 4488, 2-(difluoromethyl)-5-(4-((4-(3-(difluoromethyl)phenyl)-1H-1,2,3-triazol-1-yl)methyl)-3-fluorophenyl)-1,3,4-oxadiazole] | 1059 | 0.0472 | > 50 |
| FC(F)c1cccc(-c2cn(Cc3ccc(-c4nnc(C(F)F)o4)cn3)nn2)c1 [Compound 4489, 2-(difluoromethyl)-5-(6-((4-(3-(difluoromethyl)phenyl)-1H-1,2,3-triazol-1-yl)methyl)pyridin-3-yl)-1,3,4-oxadiazole] | 3401 | 0.0147 | > 50 |
| CN(C)Cc1c(-c2ccccc2)nnn1Cc1ccc(-c2nnc(C(F)F)o2)cn1 [Compound 4490, 1-(1-((5-(5-(difluoromethyl)-1,3,4-oxadiazol-2-yl)pyridin-2-yl)methyl)-4-phenyl-1H-1,2,3-triazol-5-yl)-N,N-dimethylmethanamine] | 571 | 0.0875 | > 50 |
| CN(C)Cc1c(-c2ccccc2)nnn1Cc1ccc(-c2nnc(C(F)F)o2)cc1F [Compound 4491, 1-(1-(4-(5-(difluoromethyl)-1,3,4-oxadiazol-2-yl)-2-fluorobenzyl)-4-phenyl-1H-1,2,3-triazol-5-yl)-N,N-dimethylmethanamine] | 433 | 0.115 | > 50 |
| CC1CCN(Cc2c[nH]c3cc(-c4cn(Cc5ccc(-c6nnc(C(F)F)o6)cc5)nn4)ccc23)CC1 [Compound 4492, 2-(difluoromethyl)-5-(4-((4-(3-((4-methylpiperidin-1-yl)methyl)-1H-indol-6-yl)-1H-1,2,3-triazol-1-yl)methyl)phenyl)-1,3,4-oxadiazole] | 3333 | 0.015 | > 50 |
| FC(F)c1nnc(-c2ccc(Cn3cc(-c4ccc5c(CN6CCCC6)c[nH]c5c4)nn3)nc2)o1 [Compound 4493, 2-(difluoromethyl)-5-(6-((4-(3-(pyrrolidin-1-ylmethyl)-1H-indol-6-yl)-1H-1,2,3-triazol-1-yl)methyl)pyridin-3-yl)-1,3,4-oxadiazole] | 7692 | 0.0065 | > 50 |
| CN(C)C1CCN(Cc2ccc(-c3cn(Cc4ccc(-c5nnc(C(F)F)o5)cc4F)nn3)cc2)CC1 [Compound 4494, 1-(4-(1-(4-(5-(difluoromethyl)-1,3,4-oxadiazol-2-yl)-2-fluorobenzyl)-1H-1,2,3-triazol-4-yl)benzyl)-N,N-dimethylpiperidin-4-amine] | 1466 | 0.0341 | > 50 |
| CC(C)(C)OC(=O)NC(C)(C)C(=O)Nc1cccc(-c2cn(Cc3ccc(-c4nnc(C(F)F)o4)cn3)nn2)c1 [Compound 4495] | 2262 | 0.0221 | > 50 |

— US20230257372A1 (CHONG KUN DANG PHARMACEUTICAL CORP., priority 2020, published 2023)
